Laboratory results from patent publication US20080305186A1, “Method and Composition for the Treatment of Cardiac Hypertrophy” (BOARD OF REGENTS, THE UNIVERSITY OF TEXAS SYSTEM, priority 2007, published 2008).

System: cardiac gene expression
Assay: Microarray analysis of cardiac gene expression (GeneChip Mouse Genome 430 2.0)
Type: in vivo, mice
Description: Microarray Sample Preparation and Analysis. Animal hearts were rapidly removed, and the atria and right ventricles were cut and immediately plunged into TRIzol Reagent (Life Technologies). Total RNA was isolated following the manufacturer's instructions, purified by phenol-chloroform extraction and then ethanol precipitation, and 20 μg further processed for microarray analysis. Briefly, cDNA synthesis, in vitro transcription, and labeling and fragmentation to produce the oligonucleotide probes were performed as instructed by the GeneChip manufacturer (Affymetrix). The probes were first hybridized to a test array (Affymetrix) and then to the GeneChip Mouse Genome 430 2.0 Array, using the GeneChip Hybridization Oven 640. The chips were washed in a GeneChip Fluidics Station 450 (Affymetrix), and the results were visualized with a GeneChip G7 scanner (Affymetrix). RMA normalization, pairwise comparisons, Student's t test and Benjamini and Hochberg correction were subsequently performed using GeneSifter (VizX Labs, Seattle, Wash.) and Spotfire DecisionSite 8.3 (Spotfire, Inc., Somerville, Mass.).
Effects on Gene Expression Profile. […] One mouse heart was used for each array, and was performed in triplicate, generating a total of 12 arrays. GeneSifter was used to perform RMA normalization, pairwise comparisons of averaged signal intensity values, and Student's t-test with Benjamini and Hochberg correction, and Spotfire was used to perform pairwise comparisons. […] Additionally, genes that were altered between any two N or cardiac hypertrophy samples were removed, as these alterations most likely represented normal variations between mice.

[1] = CH vs drug-treated isoproterenol mice
[2] = heart, drug + isoproterenol vs isoproterenol only
[3] = mouse heart, vs isoproterenol only (CH), CH vs normal 2.1
[4] = mouse heart, vs isoproterenol only (CH), CH vs normal 2.2
[5] = mouse heart, vs isoproterenol only (CH), CH vs normal 2.6
[6] = mouse heart, vs isoproterenol only (CH), CH vs normal 2.7
[7] = mouse heart, vs isoproterenol only (CH), CH vs normal 2.9
[8] = mouse heart, vs isoproterenol only (CH), CH vs normal 3.2
[9] = mouse heart, vs isoproterenol only (CH), CH vs normal 3.3
[10] = mouse heart, vs isoproterenol only (CH), CH vs normal 3.7
[11] = mouse heart, vs isoproterenol only (CH), CH vs normal 4.9

## NC(=O)N1c2ccccc2C=Cc2ccccc21 [carbamazepine]
[1]
  Number of Altered Genes, Average FC (1.5-fold): 709
  Number of Altered Genes, Average FC (2-fold): 1
  Number of Altered Genes, Minus disease variability: 1
  Number of Altered Genes, Minus natural variability: 1
  Number of Altered Genes, Reproducible: 1
  Number of Altered Genes, Student's t test: 306
CH vs drug-treated isoproterenol mice, Benjamini and Hochberg
  Number of Altered Genes, Correction: 1
CH vs drug-treated isoproterenol mice, of 779 genes altered N vs CH, altered in the reverse direction
  Number of Altered Genes, Disease-specific: 1
[2]
  Cytokine inducible SH2-containing protein 3 (Socs3), Microarray FC: −2.4 FC
  GATA binding protein 4 (Gata4), Microarray FC: 2.1 FC
  Lipocalin 2 (Lcn2), Microarray FC: −1.6 FC
  NADPH oxidase 4 (Nox4), Microarray FC: −1.9 FC
  Oncostatin receptor (Osmr), Microarray FC: −1.7 FC
  SET and MYND domain containing 1 (Smyd1), Microarray FC: 1.7 FC
  Serine protease inhibitor 2-2 (Spi2-2) (Serpin3n), Microarray FC: −2.3 FC
Mouse heart, vs isoproterenol only (CH), CH vs normal 1.6
  FC Procollagen, type IV, alpha 1 (Col4a1), AW536690: −1.8 fold
Mouse heart, vs isoproterenol only (CH), CH vs normal 1.8
  FC Fatty acid binding protein 4, adipocyte (Fabp4), BC002148: −1.6 fold
[3]
  FC Adenosine deaminase (Ada), NM_007398: −2.2 fold
  FC EST, AV032095: −1.6 fold
  FC EST, BE630073: −1.6 fold
[4]
  FC Amine oxidase, copper containing 3 (Aoc3), NM_009675: −1.8 fold
  FC CD14 antigen (CD14), NM_009841: −1.6 fold
  FC Flavin containing monooxygenase 1 (Fmo1), BC011229: −1.6 fold
  FC cDNA, BG075321: −1.6 fold
Mouse heart, vs isoproterenol only (CH), CH vs normal 2.3
  FC A disintegrin-like and metallopeptidase (reprolysin type) with thrombospondin (ADAMTS)-like 2 (Adamtsl2), AK020831: −1.6 fold
Mouse heart, vs isoproterenol only (CH), CH vs normal 2.4
  FC Purine-nucleoside phosphorylase (Pnp), BC003788: −1.7 fold
Mouse heart, vs isoproterenol only (CH), CH vs normal 2.5
  FC ESTs, AI447357: −1.9 fold
[5]
  FC Dipeptidase 1 (Dpep1), NM_007876: −1.6 fold
  FC Fc fragment of IgG, low affinity IIIa, receptor (Fcrl3), BC027310: −1.6 fold
  FC cDNA, AW552579: −1.7 fold
[6]
  FC G7e protein, NM_033075: −1.6 fold
  FC Mitogen activated protein kinase kinase kinase 8 (Map3k8), NM_007746: −1.7 fold
  FC cDNA, BC019553: −2.2 fold
[7]
  FC Decorin (Dcn), AV321547: −1.6 fold
  FC Glycoprotein (transmembrane) nmb (Gpnmb), NM_053110: −1.5 fold
Mouse heart, vs isoproterenol only (CH), CH vs normal 3.1
  FC C-type lectin domain family 1, member a (Clec1a), BB035924: −1.6 fold
[8]
  FC CUB and zona pellucida-like domains 1 (Cuzd1), NM_008411: −1.5 fold
  FC G7e protein, BC027314: −2.2 fold
  FC Serine (or cysteine) peptidase inhibitor, clade A, member 3G (Serpina3g), BC002065: −1.7 fold
  FC cDNA, BG297038: −2.9 fold
[9]
  FC Pyruvate dehydrogenase kinase 4 (Pdk4), NM_013743: 1.7 fold
  FC cDNA, AK012898: −2.0 fold
Mouse heart, vs isoproterenol only (CH), CH vs normal 3.4
  FC TRAF2 and K interacting kinase (Tnik), AI117633: −1.7 fold
Mouse heart, vs isoproterenol only (CH), CH vs normal 3.5
  FC Interleukin-1 receptor-associated kinase 3 (Irak3), AV228493: −1.6 fold
[10]
  FC Mcf.2 transforming sequee-like (Mcf21), AV293368: −1.5 fold
  FC cDNA, BE956710: −1.7 fold
Mouse heart, vs isoproterenol only (CH), CH vs normal 3.8
  FC Lipopolysaccharide binding protein (Lbp), NM_008489: −1.8 fold
Mouse heart, vs isoproterenol only (CH), CH vs normal 3.9
  FC Nuclear factor of kappa light polypeptide gene enhaer in B-cells inhibitor, zeta (Nfkbiz), NM_030612: −1.6 fold
Mouse heart, vs isoproterenol only (CH), CH vs normal 4.1
  FC Colony stimulating factor 2 receptor, beta 2, low-affinity (granulocyte-macrophage) (Csf2rb2), NM_007781: −1.8 fold
Mouse heart, vs isoproterenol only (CH), CH vs normal 4.3
  FC NADPH oxidase 4 (Nox4), BC021378: −1.9 fold
Mouse heart, vs isoproterenol only (CH), CH vs normal 4.4
  FC Calcium-sensitive chloride conductae protein-1 (Clca1), AF047838: −1.8 fold
Mouse heart, vs isoproterenol only (CH), CH vs normal 4.5
  FC cDNA, AK008807: −1.7 fold
Mouse heart, vs isoproterenol only (CH), CH vs normal 4.7
  FC Serum amyloid A 3 (Saa3), NM_011315: −2.0 fold
[11]
  FC Caer related gene-liver 1 (CRG-L1), AF282864: −1.5 fold
  FC Calcium/calmodulin-dependent protein kinase II, beta (Camk2b), BG862223: −2.8 fold
Mouse heart, vs isoproterenol only (CH), CH vs normal 5.1
  FC Oostatin receptor (Osmr), NM_011019: −1.7 fold
Mouse heart, vs isoproterenol only (CH), CH vs normal 6.0
  FC Cytokine inducible SH2-containing protein 3 (Socs3), BB241535: −2.3 fold
